Laboratory results reported in PubChem BioAssay (NCI).
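How tested: cells in 96-well plates exposed to compound for 48 hours at five concentrations. TGI marks complete inhibition of growth.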

Key:
Assay in all cases: NCI anticancer screen, dose series, 48 h
HCT-15 colon = system: HCT-15 colon
OVCAR-3 ovarian = system: OVCAR-3 ovarian
LXFL 529 NSCLC = system: LXFL 529 NSCLC
SF-539 CNS = system: SF-539 CNS
UACC-257 melanoma = system: UACC-257 melanoma
SNB-78 CNS = system: SNB-78 CNS
SN12C renal = system: SN12C renal
HL-60(TB) leukemia = system: HL-60(TB) leukemia
DLD-1 colon = system: DLD-1 colon
TK-10 renal = system: TK-10 renal
HCC-2998 colon = system: HCC-2998 colon
MOLT-4 leukemia = system: MOLT-4 leukemia
NCI-H23 lung = system: NCI-H23 lung
A549 NSCLC = system: A549 NSCLC
DMS 273 small cell lung = system: DMS 273 small cell lung
OVCAR-5 ovarian = system: OVCAR-5 ovarian
HCT-116 colon = system: HCT-116 colon
HOP-18 NSCLC = system: HOP-18 NSCLC
786-0 renal = system: 786-0 renal
M14 melanoma = system: M14 melanoma
SF-295 CNS = system: SF-295 CNS
SK-MEL-2 melanoma = system: SK-MEL-2 melanoma
HT29 colon = system: HT29 colon
OVCAR-4 ovarian = system: OVCAR-4 ovarian
ACHN renal = system: ACHN renal
COLO 205 colon = system: COLO 205 colon
SK-OV-3 ovarian = system: SK-OV-3 ovarian
MALME-3M melanoma = system: MALME-3M melanoma
HOP-92 NSCLC = system: HOP-92 NSCLC
UO-31 renal = system: UO-31 renal
U251 CNS = system: U251 CNS
SNB-75 CNS = system: SNB-75 CNS
CCRF-CEM leukemia = system: CCRF-CEM leukemia
SK-MEL-28 melanoma = system: SK-MEL-28 melanoma
IGROV1 ovarian = system: IGROV1 ovarian
K-562 leukemia = system: K-562 leukemia
NCI-H460 lung = system: NCI-H460 lung
SF-268 CNS = system: SF-268 CNS
RPMI-8226 leukemia = system: RPMI-8226 leukemia
M19-MEL melanoma = system: M19-MEL melanoma
NCI-H226 lung = system: NCI-H226 lung
OVCAR-8 ovarian = system: OVCAR-8 ovarian
KM12 colon = system: KM12 colon
XF 498 CNS = system: XF 498 CNS

Measured: TGI

CSC1(C)CC2C(CC1N1CCCCC1)C2(C)C (centres undefined)
> 100 µM: all assays above
